PMC6864818, “Antioxidant, Xanthine Oxidase, α-Amylase and α-Glucosidase Inhibitory Activities of Bioactive Compounds from Rumex crispus L. Root” (Molecules, 2019)
Converted amounts (≈) assume the structure as drawn. “And” between values parts separate entries of the source, which are not always exact repeats. Equal values may be shown once. Read-outs that look alike come from different tables or passages of the source. Marks after values point to notes of the source that are not given here.

What was measured:
[1] = ABTS radical cation decolorization assay; conditions: ABTS radical scavenging; for IC50: value in brackets
Description: (§1) Antioxidant activity of the isolated compounds was determined using DPPH (2,2-diphenyl-1-picrylhydrazyl) radical scavenging assay, ABTS (2,2′-azinobis-(3-ethylbenzothiazoline-6-sulfonic acid)) radical cation decolorization assay, ferric reducing antioxidant power test (FRAP) following previous study [37, 38, 39] with slight modifications.

[2] = DPPH radical scavenging assay; conditions: for IC50: value in brackets
Description: as §1

[3] = ferric reducing antioxidant power test (FRAP); conditions: for IC50: value in brackets
Description: as §1

[4] = target: T1, α-glucosidase (Saccharomyces cerevisiae, UniProt P53341); experiment: α-Glucosidase inhibition (AGI), pNPG substrate; format: biochemical
T1 construct: purchased Sigma-Aldrich
T1 sequence (P53341 whole entry): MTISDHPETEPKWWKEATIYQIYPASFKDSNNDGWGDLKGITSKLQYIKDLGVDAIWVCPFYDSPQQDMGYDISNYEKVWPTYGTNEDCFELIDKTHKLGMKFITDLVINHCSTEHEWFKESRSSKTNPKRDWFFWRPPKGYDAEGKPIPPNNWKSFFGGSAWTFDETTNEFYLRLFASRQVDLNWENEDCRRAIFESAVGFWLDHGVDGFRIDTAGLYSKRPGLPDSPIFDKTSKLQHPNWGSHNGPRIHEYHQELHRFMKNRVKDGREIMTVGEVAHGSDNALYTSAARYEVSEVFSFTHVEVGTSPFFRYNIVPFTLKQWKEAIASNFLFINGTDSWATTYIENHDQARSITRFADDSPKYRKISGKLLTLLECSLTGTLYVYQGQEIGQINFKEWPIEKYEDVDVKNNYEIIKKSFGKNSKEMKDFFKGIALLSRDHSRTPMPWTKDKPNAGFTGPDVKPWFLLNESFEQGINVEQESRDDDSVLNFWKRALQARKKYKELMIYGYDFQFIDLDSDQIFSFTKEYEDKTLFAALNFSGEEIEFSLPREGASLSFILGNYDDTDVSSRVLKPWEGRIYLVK
Description: The α-glucosidase inhibitory activity of isolated fractions was assayed using a synthetic substrate p-nitrophenyl-α-D-glucopyranoside (pNPG). […] (Table 5).
The anti-α-glucosidase activity of C1–C3 was evaluated using a method described previously with some modifications. In brief, an amount of 20 µL methanolic stock solution of isolated compounds was pre-mixed with an equal volume of 0.1 M potassium phosphate buffer (pH 7) and 40 µL of α-glucosidase (from Saccharomyces cerevisiae, Sigma-Aldrich, St. Louis, MO, USA) enzyme solution (0.5 U/mL in 0.1 M potassium phosphate buffer, pH 7). After 6 min incubation at 25 °C, a 20 µL aliquot of 5 mM p-nitrophenyl-α-D-glucopyranoside (pNPG) substrate (in 0.1 M potassium phosphate buffer, pH 7) was added to each reaction and the mixture was incubated for another 8 min. The reaction was terminated by adding 100 µL of 0.2 M Na2CO3, and absorbance was recorded at 405 nm.

[5] = target: T2, xanthine oxidase (Homo sapiens, UniProt P47989); experiment: Xanthine oxidase inhibition (XOD), spectrophotometric; format: biochemical
T2 sequence (P47989 whole entry, species assumed): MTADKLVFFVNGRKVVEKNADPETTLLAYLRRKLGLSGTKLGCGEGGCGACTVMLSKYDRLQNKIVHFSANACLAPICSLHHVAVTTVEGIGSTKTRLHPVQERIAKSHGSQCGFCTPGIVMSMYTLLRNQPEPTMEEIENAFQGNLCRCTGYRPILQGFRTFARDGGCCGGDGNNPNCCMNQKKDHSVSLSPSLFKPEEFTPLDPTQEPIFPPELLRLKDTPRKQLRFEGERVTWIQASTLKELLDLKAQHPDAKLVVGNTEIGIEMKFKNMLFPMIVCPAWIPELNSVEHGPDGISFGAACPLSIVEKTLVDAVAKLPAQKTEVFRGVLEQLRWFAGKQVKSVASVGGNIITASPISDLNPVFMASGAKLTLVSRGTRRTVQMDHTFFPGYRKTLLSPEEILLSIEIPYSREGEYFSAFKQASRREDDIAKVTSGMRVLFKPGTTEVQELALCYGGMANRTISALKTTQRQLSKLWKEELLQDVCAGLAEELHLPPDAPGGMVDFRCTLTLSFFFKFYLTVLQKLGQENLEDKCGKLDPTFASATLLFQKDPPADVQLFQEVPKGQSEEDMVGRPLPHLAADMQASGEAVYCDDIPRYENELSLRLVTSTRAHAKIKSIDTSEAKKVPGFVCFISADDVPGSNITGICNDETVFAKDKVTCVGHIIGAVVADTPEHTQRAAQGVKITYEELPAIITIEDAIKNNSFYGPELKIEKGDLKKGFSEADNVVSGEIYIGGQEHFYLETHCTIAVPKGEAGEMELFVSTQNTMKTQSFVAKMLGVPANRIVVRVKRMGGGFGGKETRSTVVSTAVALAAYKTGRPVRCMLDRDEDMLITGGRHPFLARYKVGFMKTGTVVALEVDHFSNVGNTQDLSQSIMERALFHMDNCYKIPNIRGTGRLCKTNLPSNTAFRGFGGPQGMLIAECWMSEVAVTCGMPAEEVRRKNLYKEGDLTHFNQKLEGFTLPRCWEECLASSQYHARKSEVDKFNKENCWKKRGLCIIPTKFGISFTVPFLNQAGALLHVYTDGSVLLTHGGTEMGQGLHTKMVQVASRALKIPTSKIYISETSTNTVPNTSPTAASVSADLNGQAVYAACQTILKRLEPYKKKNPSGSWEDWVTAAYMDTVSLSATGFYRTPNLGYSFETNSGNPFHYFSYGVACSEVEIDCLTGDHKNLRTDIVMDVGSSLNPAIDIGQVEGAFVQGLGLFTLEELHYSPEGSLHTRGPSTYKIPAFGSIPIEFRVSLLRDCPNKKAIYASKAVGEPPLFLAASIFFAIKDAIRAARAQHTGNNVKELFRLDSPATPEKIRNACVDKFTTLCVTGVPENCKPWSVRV

[6] = target: T2, xanthine oxidase; conditions: modified xanthine oxidase inhibition methods; ref [33]; cited from earlier work

| SMILES | IC50 ABTS [1] | IC50 [1] [µM] | IC50 DPPH [2] | IC50 [2] [µM] | IC50 FRAP [3] | IC50 [3] [mM] | IC50 DPPH ([2]; listed as 1) [µg/mL] | IC50 ([4]; pNPG) [µM] | IC50 ([4]; value in brackets) [µM] | IC50 [5] [µM] | IC50 ([5]; value in brackets) [µM] | IC50 DPPH ([2]; listed as 2) [µg/mL] | IC50 [6] [µM] |
| --- | --- | --- | --- | --- | --- | --- | --- | --- | --- | --- | --- | --- | --- |
| Cc1cc(C(C)(C)C)c(O)c(C(C)(C)C)c1 [BHT, reference compound] | 46.9 ± 0.9^b µg/mL | 213 | 19.4 µg/mL and 19.2 ± 0.3^b µg/mL | 87.1 | 422.1 ± 1.1^b µg/mL | 1.92 |  |  |  |  |  |  |  |
| Cc1cc(O)c2c(c1)C(=O)c1cccc(O)c1C2=O [Fraction C2, 1,8-dihydroxy-3-methylanthraquinone] | 34.3 ± 0.7^c µg/mL | 135 | 10.0 ± 0.3^c µg/mL | 39.4 | 312.6 ± 6.3^c µg/mL | 1.23 | 9.8 (≈ 38.5 µM) | 79.1 | 79.1 | 143 | 143 |  |  |
| COc1cc(O)c2c(c1)C(=O)c1cc(C)cc(O)c1C2=O [Fraction C3, 1,8-dihydroxy-3-methoxy-6-methylanthraquinone] | 44.8 ± 0.8^b µg/mL | 158 | 12.0 ± 0.2^c µg/mL | 42.3 | 408.6 ± 6.8^b µg/mL | 1.44 |  | 66.5 | 66.5 | 158 | 158 | 12.1 (≈ 42.6 µM) |  |
| O=C(O)[C@H]1O[C@@H](Oc2cc3oc(-c4ccccc4)cc(=O)c3c(O)c2O)[C@H](O)[C@@H](O)[C@@H]1O [baicalin] |  |  |  |  |  |  |  |  |  |  |  |  | 215 |
| COc1c(O)cc(O)c2c(=O)cc(-c3ccccc3)oc12 [wogonin] |  |  |  |  |  |  |  |  |  |  |  |  | 157 |
